How the values were obtained:
[1] = test system: serotonergic neurons; test: Whole cell patch clamp recording in brain slices containing dorsal raphe; type: cell-based; details: WT mice
Protocol: The mediation of peripheral hormone action on the output of the brain relies on altered neuronal circuit activity. Interaction between neuronal circuits hinges on electric properties of neurons, particularly on the generation of action potentials. Thus, to test whether leptin directly alters serotonin output from brainstem neurons, the responses of serotonin-producing cells to leptin were analyzed with whole cell patch clamp recording in brain slices containing dorsal raphe (DR). Slices were taken from WT animals and from mice lacking ObRb selectively in Tph2-expressing neurons (ObRbSERT−/− mice). Serotonergic neurons were identified according to their unique properties (long-duration action potential, activation by norepinephrine and inhibition by serotonin itself) (Liu et al., 2002, J. Neurosci. 22:9453-9464). Since serotonergic neurons are usually quiescent in slices because of the loss of noradrenergic inputs, action potentials in these neurons were restored by application of alpha-1 adrenergic agonist phenylephrine (3 μM) in the bath (Liu et al., 2002, J. Neurosci. 22:9453-9464). […]
Whole-cell current clamp was performed to observe action potentials in DR seritonergic (5-HT) neurons with a Multiclamp 700A amplifier (Axon instrument, CA). […] Electrophysiological data were analyzed with Axograph 4.9 and plotted with Igor Pro software (WaveMetrics, Lake Oswego, Oreg.).

[2] = test system: Tph2 expression; test: qPCR analysis of Tph2 expression following leptin ICV infusion; type: in vivo; details: WT mice, different doses and time points
Text: FIG. 5. Leptin inhibits bone mass accrual by inhibiting brain-derived serotonin synthesis. (A) In situ hybridization analysis and co-immunolocalization of ObRb expression in serotonergic neurons. (B-C) qPCR analysis of Tph2 expression (B) and brainstem serotonin content (C) at different ages in WT and ob/ob female mice. (D-E) qPCR analysis of Tph2 expression following intra-cerebroventricular (ICV) infusion of leptin at different doses (D) and at different time points (E) in WT mice. (F) Immunohistochemical analysis of STAT3 phosphorylation in the dorsal and median raphe following leptin ICV. Arrows indicate pSTAT3/β-Gal positive cells. (G-H) qPCR analysis of Tph2 expression (G) and brainstem serotonin content (H) in WT, ob/ob and ob/ob; Tph2+/− mice. (I) Histomorphometric analysis of vertebrae of ob/ob and ob/ob; Tph2+/− mice. (J) Representative traces of action potentials recorded from WT mice before, during and after the application of leptin (100 nM). R.M.P. −43.0 mV. (K-L) Analysis of serotonergic neuron action potential (AP) frequency in brainstem slices from WT (K) and ObRbSERT−/− (L) mice. All panels (except D, E, G, H and K) *P<0.05; **P<0.01 (Student's t test). Error bars, SEM. […]
RNA isolation, cDNA preparation and qPCR analysis was carried out following standard protocols. Genotypes of all the mice were determined by PCR. […]

[3] = test system: phosphorylation of Stat3; test: Co-immunolocalization of Stat3 phosphorylation in serotonergic neurons of the brainstem after acute leptin ICV infusion; type: in vivo, mice
Text: Multiple lines of evidence indicate that it is by inhibiting BDS synthesis that leptin prevents bone mass accrual. First, ObRb, the signaling form of the leptin receptor, is expressed in β-galactosidase-positive Tph2-expressing neurons (FIG. 5A). […] Leptin inhibits synthesis of BDS, which in turn reduces, by signaling in VMH neurons, the sympathetic tone; as a result leptin prevents bone mass accrual.
Animals were anaesthetized and placed on a stereotaxic instrument (Stoelting) and the depth of anesthesia was determined by the animal's respiratory pattern and by pinching the animal's foot for reflex response. The dorsal part of the animal's head was shaved and prepped with betadine scrub, and 70% alcohol. The skin covering the head was then cut (approximately a 1 cm incision) and the calvaria exposed. A hole was drilled upon bregma using a 28-gauge needle. A 28 gauze needle canula (Brain infusion kit II, Alzet) was then implanted into the hole reaching the third cerebral ventricle according to the following coordinates: midline, −0.3 AP. 3 mm ventral (0 point Bregma). Using a Hamilton syringe, PBS or leptin (2 μg) was injected into the 3rd cerebral ventricle. The dorsal edges of the incision were coated with Bupivicaine 0.25% (<2 mg/kg), joined and closed with 2 sterile clips. […]

[4] = test system: c-Fos expression in neurons of the paraventricular and arcuate nuclei; test: Melanocortin sensitivity analysis: c-Fos expression after ICV Mc4r agonist; type: in vivo; details: ICV infusion, both WT and Tph2-/- mice
Protocol: A survey was carried out of the expression of genes in hypothalamic neurons that may mediate leptin regulation of appetite and the expression of which is perturbed in Tph2−/− mice. […] Two observations support the notion that the appetite phenotype of the Tph2−/− mice is caused, at least in part, by an increase in melanocortin signaling. […] Moreover, Mc4r expression was increased ˜2 fold in Htr1a−/− and ˜1.6 fold in Htr2bPomc−/− mice, but was unaffected in Htr2c−/− mice (FIG. 6J and data not shown).
To analyze changes in melanocortin sensitivity in Tph2−/− mice, MTII (2 μg) or saline was administered (ICV) into WT and Tph2−/− mice. 3 hours later mice were transcardially perfused with 4% PFA, brains were dissected and postfixed in 4% PFA overnight at 4° C. Following cryoprotection in 20% sucrose, brains were coronally sectioned at 30 μm thickness. For colorimetric cFos immunohistochemistry, sections were incubated for 16 hrs at 4° C. in rabbit anti-cFos antiserum (Ab-5; 1:3000 dilution; Calbiochem), incubated with biotinylated goat anti-rabbit IgG secondary antiserum (1:600; Vector laboratories) for 2 h at room temperature, and then incubated in avidin biotin complex (Vector Labs). Color was developed using Vector ABC kit.

[5] = test system: CREB phosphorylation in arcuate neurons; test: CREB phosphorylation in hypothalamic explant cultures (immunofluorescence of p-CREB); type: cell-based, mice; details: hypothalamic explants treated with serotonin
Protocol: FIG. 18. (A) Western blot analysis of CREB phosphorylation and CREB in hypothalamic explants treated with PBS, serotonin (50 µM), Htr1a antagonist (LY426955) (50 µM) or serotonin (50 µM)+Htr1a antagonist (LY426955) (50 µM). (B) Analysis of CREB phosphorylation by immunofluorescence using P-CREB (S133) antibody. Immunofluorescence was performed on coronal sections of wild type (WT) hypothalamic explants previously treated with, PBS, 50 µM serotonin, 50 µM Htr1a antagonist (LY426955) or 50 µM serotonin+50 µM Htr1a antagonist (LY426955) for 30 min. The first row represents large bright field images of hypothalamic sections and the immunofluorescence analysis of the restricted hypothalamic region containing the Arcuate (Arc) neurons. Ventromedial hypothalamus (VMH) and Arcuate (Arc) are outlined with dashed. (C-D) Analysis of the appetite of CrebPomc−/− mice. (C) Measurement of the food intake (g) within 12 hours and 24 hours and (D) body weight analysis in WT, CrebPomc+/− and CrebPomc−/− mice. *(p<0.05, SEM). (E) Real-time PCR analysis of Mc4r, Pomc-1, Cart, Mch, Hypocretine and Npy expression in hypothalamus of WT and CrebPomc−/− mice. *(p<0.05, SEM).
Htr1a is a […] coupled receptor that signals through the cAMP-PKA-dependent pathway. […]

leptin: adipocyte-derived hormone that regulates appetite and energy expenditure
action potential frequency in serotonergic neurons [1]: significantly decreased action potential frequency | Tph2 expression [2]: decreased Tph2 expression in a time- and dose-dependent manner | phosphorylation of Stat3 in serotonergic neurons of the brainstem ([3]; ObRbSERT-/- mice): dramatically reduced | phosphorylation of Stat3 in serotonergic neurons of the brainstem ([3]; WT mice): increased

MTII
c-Fos expression in neurons of the paraventricular and arcuate nuclei [4]: increased c-Fos expression

NCCc1c[nH]c2ccc(O)cc12 [serotonin]
CREB phosphorylation [5]: increased CREB phosphorylation in arcuate neurons
